Patent US10954513B2, “RNA-guided transcriptional regulation and methods of using the same for the treatment of back pain” (UNIVERSITY OF UTAH RESEARCH FOUNDATION, priority 2015, dated 2021)
Blank lines part the entries; values can stand above or below the substance they belong to.

What was measured:
TNFR1 [1] = assay: Human NP cell CRISPRi: TNFR1 knockdown (qRT-PCR); assay type: cell-based; conditions: primary human NP cells
Protocol: Quantitative RT-PCR was performed to identify TNFR1 knockdown in these primary human NP cells. Additionally, flow-cytometry was performed to determine transduction efficiency in human NP cells.

TNFR1 [2] = assay: Guide RNA screening in HEK293T cells (qPCR), TNFR1; assay type: cell-based, human; conditions: HEK293T cells expressing dCas9-KRAB, 48 hours post transfection, relative to non-target gRNA
Description: (§1) Using the UCSC genome browser (GRCh37/hg19), the 5-UTR and the promoter region, 1000 base pairs upstream were selected and input into the CRISPR design tool (crispr.mit.edu). This tool outputs 20 bp gRNAs that are followed on their 3′ end by the PAM sequence NGG, which is specific to the CRISPR-Cas9 system derived from Streptococcus pyogenes. Additionally, the CRISPR design tool scores the potential gRNA sequences based on the number of off-target sites they have and how many are within genes (e.g., higher score means less off-target sites). […]
(§2) Total RNA was harvested from cells using Purelink RNA mini kit (Ambion). […] Changes in gene expression were expressed as fold changes in mRNA expression relative to the nontarget control, and normalized to GAPDH mRNA expression, using the ΔΔCt method.
(§3) HEK293T cells stably expressing dCas9-KRAB GFP were seeded in 6-well plates at a density of 600,000 cells/well in DMEM-HG with 10% FBS. […] Subsequently each sample was then run through taqman qPCR using primers for TNFRSF1A or IL1R1 and housekeeping gene GAPDH to quantify downregulation of each gene by each guide. Gene downregulation was quantified using the ΔΔCt method to characterize fold change relative non-target gRNA expressing cells.

[3] = tested on: NF-κB activity in HEK293T cells; assay: NF-κB activity assay in HEK293T cells dosed with TNF-α; assay type: cell-based, human
Protocol: HEK293T cells and hADMSCs were transduced with the earlier mentioned NF-κB reporter vector and analyzed for changes in NF-κB activity in response to dosing cells with TNF-α/IL-1β (RnD systems, ProSpec). To further describe, cells expressing the NF-κB reporter were plated in white 96-well plates (HEK293T cells at 25,000 cells/well and hADMSCs at 5000 cells/well) and allowed to attach overnight. The next day cells were dosed with the appropriate amounts of inflammatory cytokines (0, […], 1, and/or 10 ng/mL of TNF-α/IL-1β) for 24 hours. At 24 hours luminescence corresponding to NF-κB activity was measured in one set of cells using the bright glo assay (Promega) and cell number was measured on another set of cells under the same treatment using the real-time glo assay (Promega). Changes in NF-κB activity were quantified as a fold change in luminescence relative to the no dose control for each cell type, with NF-κB activity normalized to cell number.

IL1R1 = assay: Guide RNA screening in HEK293T cells (qPCR), IL1R1; assay type: cell-based, human; conditions: HEK293T cells expressing dCas9-KRAB, 48 hours post transfection, relative to non-target gRNA
Description: as §1, §2, §3

AKAP 150 (rat) = AKAP 150 (rat) (UniProt P24587); assay: cell-based or functional assay
human IL-6 (human) = human IL-6 (human) (UniProt P05231); assay: cell-based or functional assay
Chain of UniProt P05231 (P05231 30-212 limits assumed): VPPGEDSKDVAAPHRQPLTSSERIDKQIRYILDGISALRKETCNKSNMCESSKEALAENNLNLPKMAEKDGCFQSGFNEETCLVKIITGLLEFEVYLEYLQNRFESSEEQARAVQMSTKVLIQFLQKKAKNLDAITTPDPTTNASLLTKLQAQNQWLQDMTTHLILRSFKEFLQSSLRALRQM

Chain of UniProt P24587 (P24587 whole entry): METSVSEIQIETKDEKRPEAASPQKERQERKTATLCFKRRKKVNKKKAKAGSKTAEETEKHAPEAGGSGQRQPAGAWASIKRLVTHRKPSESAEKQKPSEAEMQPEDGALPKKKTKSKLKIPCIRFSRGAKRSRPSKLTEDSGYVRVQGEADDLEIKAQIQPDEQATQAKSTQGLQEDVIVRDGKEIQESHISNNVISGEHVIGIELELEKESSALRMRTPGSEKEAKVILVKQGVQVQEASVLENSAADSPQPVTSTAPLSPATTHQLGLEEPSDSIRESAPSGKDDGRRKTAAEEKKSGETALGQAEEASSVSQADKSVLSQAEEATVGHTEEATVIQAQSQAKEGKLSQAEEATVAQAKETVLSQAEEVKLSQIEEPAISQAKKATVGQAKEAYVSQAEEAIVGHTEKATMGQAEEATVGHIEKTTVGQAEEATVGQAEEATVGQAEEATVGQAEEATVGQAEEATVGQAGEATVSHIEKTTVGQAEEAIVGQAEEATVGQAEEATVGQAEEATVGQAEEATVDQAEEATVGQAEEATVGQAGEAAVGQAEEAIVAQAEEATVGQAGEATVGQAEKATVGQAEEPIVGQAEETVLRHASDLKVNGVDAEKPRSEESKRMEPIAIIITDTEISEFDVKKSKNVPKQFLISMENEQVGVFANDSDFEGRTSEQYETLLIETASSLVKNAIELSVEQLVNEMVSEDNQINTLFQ

Substance: 5′-AUAAGCGUCCGACACAUGAU-3′ (expressed or natural sequence) [gRNA 4 for TNFR1, 82]
TNFR1 knockdown in NP cells (TNFR1 [1]; with dCas9-KRAB): 55%
TNFR1 knockdown in NP cells (TNFR1 [1]; with dCas9 alone): no knockdown

Substance: 5′-CAGUGUUGCAACAGCGGGAC-3′ (expressed or natural sequence) [gRNA 1 for TNFR1, 79]
TNFR1 gene downregulation (TNFR1 [2]): up to 87%
NF-κB activity at lowest dose ([3]; 0.15 ng/mL TNF-α): no significant increase in NF-κB activity
decreases in NF-κB activity ([3]; 24 hours of dosing with 0, 0.15, 1, and 10 ng/mL TNF-α): up to 95%

Substance: 5′-GGAGUCGCCAACUCAAUUCG-3′ (expressed or natural sequence) [gRNA 1 for IL1R1, 84]
IL1R1 gene downregulation (IL1R1): 67%

Substance: control peptide St-Ht31P (Promega)
percentage of neurons firing at 39° C. in degenerative IVD conditioned media (AKAP 150 (rat)): 61.9%

Second part, the substance after the results:

percentage of neurons firing at 39° C. in degenerative IVD conditioned media (AKAP 150 (rat)): 15.5%
Substance: AKAP inhibitor peptide St-Ht31 (Promega)

T50 of neuron firing (Boltzmann fit) (human IL-6 (human)): 38.2 ° C.
maximum firing response of DRG neurons (human IL-6 (human)): 66%
Substance: mouse isotype control antibody (Life Technologies)
